Values quoted from earlier work as cited in patent US8926994B2, “Mesoporous silicon particles for the presentation of tumor antigens and adjuvant for anti-cancer immunity” (The Methodist Hospital Research Institute, priority 2011, dated 2015).

System: endothelial cells

## N.N.[Cl][Pt][Cl] [cis-platin]
12 and 24 hr, 10:1 microparticles:cell
  relative cell cycle composition / mitosis (propidium iodide DNA content): inhibited cellular mitosis
Flow cytometry
  apoptotic volume (cell death): major accumulation of cell fragments
